Measurements as given in PubChem BioAssay (NCI).
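Cultured in 96-well plates, cells were exposed to test compound for 48 hours across five concentrations. GI50 marks 50% less growth. TGI: total growth inhibition.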

Columns and labels:
Experiment in all cases: NCI anticancer screen, dose series, 48 h
RPMI-8226 leukemia = system: RPMI-8226 leukemia
ACHN renal = system: ACHN renal
SF-539 CNS = system: SF-539 CNS
SK-MEL-28 melanoma = system: SK-MEL-28 melanoma
A498 renal = system: A498 renal
HL-60(TB) leukemia = system: HL-60(TB) leukemia
HCT-15 colon = system: HCT-15 colon
MOLT-4 leukemia = system: MOLT-4 leukemia
SF-268 CNS = system: SF-268 CNS
NCI-H522 lung = system: NCI-H522 lung

| Compound | TGI (RPMI-8226 leukemia) | TGI (ACHN renal) | TGI (SF-539 CNS) | TGI (SK-MEL-28 melanoma) | TGI (A498 renal) | TGI (HL-60(TB) leukemia) | TGI (HCT-15 colon) | TGI (MOLT-4 leukemia) | TGI (SF-268 CNS) | TGI (NCI-H522 lung) | GI50 (RPMI-8226 leukemia) | GI50 (ACHN renal) | GI50 (SF-539 CNS) | GI50 (SK-MEL-28 melanoma) | GI50 (A498 renal) | GI50 (HL-60(TB) leukemia) | GI50 (HCT-15 colon) | GI50 (MOLT-4 leukemia) | GI50 (SF-268 CNS) | GI50 (NCI-H522 lung) |
| --- | --- | --- | --- | --- | --- | --- | --- | --- | --- | --- | --- | --- | --- | --- | --- | --- | --- | --- | --- | --- |
| Nc1nc2c(ncn2C2CCC(CO)O2)c(=O)n1C(=O)c1ccccc1 (centres undefined) | > 100 µM | > 100 µM | > 100 µM | > 100 µM | > 100 µM | > 100 µM | > 100 µM | > 100 µM | > 100 µM | > 100 µM |  |  |  |  |  |  |  |  |  |  |
| N#Cc1c(NC(=O)NCc2ccccc2)sc2c1CCCC2 | > 100 µM | > 100 µM | 4.68 µM | > 100 µM | 1.13 µM | 3.13 µM | > 100 µM | > 100 µM | > 100 µM | > 100 µM | 0.538 µM | 0.677 µM | 0.37 µM | 6.37 µM | 0.236 µM | 0.3 µM | 0.443 µM | 0.487 µM | 1.82 µM | 0.559 µM |
| COC(=O)C(=O)C(C(=O)C(=O)Nc1cccc(C(C)=O)c1)c1nc2ccc([N+](=O)[O-])cc2[nH]c1=O (centres undefined) | > 100 µM | > 100 µM | > 100 µM | > 100 µM | > 100 µM | > 100 µM | > 100 µM | > 100 µM | > 100 µM | > 100 µM |  |  |  |  |  |  |  |  |  |  |
| C[C@]12CC[C@@H]3c4cc(OC(F)F)c(O)cc4CC[C@H]3[C@@H]1CC[C@@H]2OS(N)(=O)=O | 46.9 µM | > 100 µM | 14.4 µM | 78.2 µM | 4.35 µM | 2.8 µM | 26.8 µM | > 100 µM | > 100 µM | 18.4 µM | 0.568 µM | 0.735 µM | 0.455 µM | 10.5 µM | 0.321 µM | 0.313 µM | 0.458 µM | 0.598 µM | 3.15 µM | 0.324 µM |
| COC1C(CO)OC(n2c3ccccc3c3c4c(c5c6ccccc6[nH]c5c32)C(=O)NC4=O)C(O)C1O (centres undefined) | 25.2 µM | 0.0928 µM | 0.0359 µM | 8.49 µM | 0.0998 µM | 0.034 µM | > 31.9 µM |  | 0.586 µM | 0.153 µM | 2.22 µM | < 0.0191 µM | < 0.01 µM | 0.156 µM | 0.016 µM | 0.0114 µM | 0.524 µM | 0.0202 µM | 0.0189 µM | < 0.01 µM |
| CC(=O)Nc1ccccc1-c1nc2ccccc2nc1C | > 100 µM | > 100 µM | > 100 µM | > 100 µM | > 100 µM | > 100 µM | > 100 µM | > 100 µM | > 100 µM | > 100 µM |  |  |  |  |  |  |  |  |  |  |
| CCOC(=O)C1SC(=Nc2cccc(Cl)c2C)N=C1C (centres undefined) | 69.9 µM | 77.5 µM | 74 µM | > 100 µM | > 100 µM | 46.8 µM | > 10 µM | 78.8 µM | > 100 µM | 35.2 µM |  |  |  |  |  |  |  |  |  |  |
| CC[C@@H]1[C@@H](C)O[C@@](O)([C@@H](C)[C@H](O)[C@H](C)[C@H]2OC(=O)/C=C/C=C/[C@H](C)[C@@H]([C@@H](C)[C@@H](O)[C@H](C)[C@@]3(O)C[C@@H](O[C@H]4C[C@@H](O)[C@H](O)C(C)O4)[C@H](CC)[C@@H](C)O3)OC(=O)/C=C/C=C/[C@@H]2C)C[C@H]1O[C@@H]1C[C@@H](O)[C@H](O)C(C)O1 (some centres undefined) | 0.153 µM | 0.411 µM | 0.182 µM | 0.258 µM | 0.131 µM | 0.14 µM | 0.924 µM | 0.219 µM | 0.175 µM | 0.303 µM | 0.0643 µM | 0.111 µM | 0.0708 µM | 0.0885 µM | 0.0596 µM | 0.0708 µM | 0.459 µM | 0.0933 µM | 0.0698 µM | 0.0885 µM |
| Nc1c(C(=O)c2ccc(-c3cccnc3)cc2)cnn1-c1ccc(F)cc1 | > 25 µM | > 16 µM | > 25 µM | > 25 µM | > 25 µM | > 25 µM | > 25 µM | > 25 µM | > 25 µM | > 23.1 µM | > 17.5 µM | > 10.9 µM | > 16.7 µM | > 17.4 µM | > 18.8 µM | > 13.8 µM | > 20.2 µM | > 25 µM | > 15.8 µM | > 12.7 µM |
| O=C1C(Cl)=C(Sc2nnc3c4ccccc4c4ccccc4c3n2)C(=O)c2ccccc21 | 39.1 µM | 29.5 µM | 32.4 µM | 39.6 µM | 37.2 µM | 7.59 µM | 42.8 µM | 34.4 µM | 90.6 µM | 57.7 µM |  |  |  |  |  |  |  |  |  |  |
| COc1ccc(N=Cc2c(O)ccc3c2oc2cc(Cl)c(O)c(Cl)c23)cc1 | 30.2 µM | 44.4 µM | 30.4 µM | 40.4 µM | 28.5 µM | 42.7 µM | 25.7 µM | 30 µM | 29.6 µM | 28.2 µM | 4.83 µM | 6.22 µM | 7.03 µM | 15.9 µM | 14.5 µM | 13.2 µM | 7.38 µM | 4.84 µM | 6.68 µM | 9.61 µM |
| CC(C)(C)N1CCC1CN (centres undefined) | > 100 µM | > 100 µM | > 100 µM | > 100 µM | > 100 µM | > 100 µM | > 100 µM | > 100 µM | > 100 µM | > 100 µM | > 100 µM | > 100 µM | > 100 µM | > 100 µM | > 100 µM | > 100 µM | > 100 µM | > 100 µM | > 100 µM | > 100 µM |
| CC12OOC(c3ccccc31)c1c2ccc2ccccc12 (centres undefined) | 6.24 µM | 3.51 µM | 22.3 µM | 27 µM | 32.1 µM | 2.72 µM | 5.09 µM | 3.42 µM | 28 µM | 1.99 µM |  |  |  |  |  |  |  |  |  |  |
| COC(=O)CCC(NC(=S)N/N=C/c1ccccn1)C(=O)OC (centres undefined) | > 100 µM | > 100 µM | > 100 µM | > 100 µM | > 100 µM | > 100 µM | > 100 µM | > 100 µM | > 100 µM | > 100 µM |  |  |  |  |  |  |  |  |  |  |
| C[n+]1c(/C=C/c2c[nH]c3ccccc23)ccc2ccccc21 | 28.2 µM | 47.8 µM | 27.3 µM | 27.3 µM | 18.1 µM | 30.1 µM | 53.4 µM | 15.5 µM | 24.2 µM | 25.9 µM | 5.63 µM | 10.1 µM | 12.7 µM | 13.8 µM | 2.8 µM | 12.8 µM | 18 µM | 4.03 µM | 10.4 µM | 11.8 µM |
| O=[N+]([O-])c1ccc(C2CC(c3ccccc3Cl)=Nc3ccccc3S2)cc1 (centres undefined) | 5.14 µM | 42.9 µM | 17.7 µM | 22.7 µM | 17.4 µM | 6.36 µM | 10.9 µM | 5.37 µM | 18.9 µM | 8.16 µM |  |  |  |  |  |  |  |  |  |  |
